{"source": "PubChem BioAssay AID2060483", "about": "(Molecular Pharmacology Branch, DTP, NCI, 2025)", "system": "K24384-001-R-PDC complex spheroids, viability", "experiment": "Anticancer human tumor K24384-001-R-PDC patient-derived pancreatic adenocarcinoma cell line growth inhibition [GQUAD]", "details": "for viability, T/C: stronger effect = lower value", "source_text": "DNA G-quadruplex Stabilizer Agents in Combinations in Complex Spheroids\nA high-throughput screen of multi-cell type tumor spheroids was designed to identify active combinations of DNA G-quadruplex stabilizer agents and targeted small molecules. Complex spheroids include a stromal component modeled by human endothelial cells (HUVEC) and fibroblasts modeled by human mesenchymal stem cells (MSCs). The concentration ranges selected for each drug and investigational agent were based upon clinically achievable concentrations if the clinical Cmax of the agent was known.\nCompounds. The drugs and investigational agents: pidnarulex (CX-5461; NSC782164), APTO-253 (NSC789042), BRACO-19 (NSC847499), peposertib (NSC802822), ceralasertib (NSC780249), elimusertib (NSC800525), camonsertib (NSC841442), AZD-1390 (NSC803789), olaparib (NSC753686), talazoparib (NSC767125), ART-558 (NSC835418), sotorasib (NSC818433), MRTX-1133 (NSC836407), SN-38 (NSC673596), topotecan (NSC609699), etoposide (NSC141540), doxorubicin (NSC123127), gemcitabine (NSC613327), 5-fluorouracil (NSC19893), paclitaxel (NSC125973), vemurafenib (NSC761431), panobinostat (NSC761190), R-306465 (JNJ-16241199; NSC773264), adavosertib (NSC754352), TP-3654 (NSC805149), carboplatin (NSC241240), KSQ-4279 (NSC840948), and staurosporine (NSC755774) were obtained from the National Cancer Institute (NCI) Developmental Therapeutics Program Chemical Repository (34). The FDA-approved anticancer drug set is available from the NCI Developmental Therapeutics Program. […] The stock solutions were prepared in dimethyl sulfoxide (DMSO, Sigma-Aldrich, St. Louis, MO, cat. D2650) at 800-fold the tested concentration and stored at -70 degrees C prior to their use. All drugs and investigational agents were tested over a range starting from a high concentration at or near the clinical Cmax and decreasing in half-log increments. If the clinical Cmax for an agent had not been determined, the highest concentration tested was 10 microM.\n2.3 Cell Culture. All cells were maintained in an incubator at 37 degrees C and 5% CO2 with 95% humidity. The PDC lines were cultured according to standard operating procedures established by the NCI PDMR. All PDCs were thawed and cultured in Matrigel-coated flasks prepared with a working solution of 1X Ham's F-12 nutrient mix, without supplementation (Invitrogen, cat. 11765054), 100 U/mL penicillin-streptomycin (Invitrogen, cat. 15140122), and 2.5% Matrigel (Corning Inc., cat. 354248) for the first three passages. The 857933-349-R-J2-PDC line was cultured in 6C/Colon 1B media, which includes advanced DMEM/F-12 (Thermo Fisher Scientific, cat. 12634028), 10 mM HEPES (Thermo Fisher Scientific, cat. 15630080), 1X GlutaMAX supplement (Thermo Fisher Scientific, cat. 35050061), 0.1 mg/mL primocin (InvivoGen, cat. ant-pm-2), 10% defined fetal bovine serum, heat inactivated (HyClone Laboratories Inc., cat. SH30070.03HI), 50% L-WRN conditioned media (ATCC, cat. CRL-3276), 1.25 mM N-Acetyl-L-cysteine (Sigma-Aldrich, cat. A9165), 10 mM nicotinamide (Sigma-Aldrich, cat. N0636), 1X B-27 supplement (Thermo Fisher Scientific, cat. 17504044), 1X N-2 supplement (Thermo Fisher Scientific, cat. 17502048), 10 microM Y-27632 dihydrochloride (Tocris Bioscience, cat. 1254), and 50 ng/mL human EGF recombinant protein (Thermo Fisher Scientific, cat. PHG0311). The 485176-168-R4-J1-PDC line was cultured in Panc media, which includes all 6C/Colon 1B media components plus 100 ng/mL human FGF-10 (Thermo Fisher Scientific, cat. 100-26), 500 nM SB-431542 (Selleckchem, cat. S1067), and gastrin (Tocris, cat. 3006).\n[…]", "note": "Several values for one entry are separate records, joined by “and”; a condition that tells them apart may be missing. Identical values can stand only once.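 Further: spheroids exposed to compounds for seven days.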", "data": [{"smiles": "CC1COCCN1c1cc(-c2ccnn2C)c2ccnc(-c3ccn[nH]3)c2n1", "note": "(stereo not drawn)", "values": [{"measurement": "viability, T/C", "setting": "compound 0.0316 µM", "result": "85.2% and 75.3% and 76.9%"}, {"measurement": "viability, T/C", "setting": "compound 0.1 µM", "result": "49.8% and 45% and 54.3%"}, {"measurement": "viability, T/C", "setting": "compound 0.316 µM", "result": "41.3% and 28.3% and 40.7%"}, {"measurement": "viability, T/C", "setting": "compound 1 µM", "result": "37.1% and 26.5% and 29.7%"}, {"measurement": "viability, T/C", "setting": "compound 3.16 µM", "result": "38.4% and 30.4% and 33.3%"}, {"measurement": "viability, T/C", "setting": "compound 10 µM", "result": "31.8% and 32.7% and 33.8%"}, {"measurement": "IC50", "setting": "curve of compound", "result": "109 nM and 82.7 nM and 141 nM"}]}, {"smiles": "C#Cc1c(F)ccc2cc(O)cc(-c3ncc4c(N5CC6CCC(C5)N6)nc(OCC56CCCN5CC(F)C6)nc4c3F)c12", "note": "(stereo not drawn)", "values": [{"measurement": "viability, T/C", "setting": "compound 0.0316 µM", "result": "107% and 94.9% and 91.9%"}, {"measurement": "viability, T/C", "setting": "compound 0.1 µM", "result": "99.2% and 99.3% and 86.2%"}, {"measurement": "viability, T/C", "setting": "compound 0.316 µM", "result": "98.2% and 95.7% and 83.9%"}, {"measurement": "viability, T/C", "setting": "compound 1 µM", "result": "74.1% and 52.7% and 53%"}, {"measurement": "viability, T/C", "setting": "compound 3.16 µM", "result": "35.6% and 35.4% and 33.3%"}, {"measurement": "viability, T/C", "setting": "compound 10 µM", "result": "19.8% and 14.8% and 18.1%"}, {"measurement": "IC50", "setting": "curve of compound", "result": "2060 nM and 1350 nM and 1320 nM"}]}, {"smiles": "COc1cccc2c1C(=O)c1c(O)c3c(c(O)c1C2=O)CC(O)(C(=O)CO)CC3OC1CC(N)C(O)C(C)O1", "note": "(stereo not drawn)", "values": [{"measurement": "viability, T/C", "setting": "compound 0.0316 µM", "result": "96.8% and 80.5% and 92.1%"}, {"measurement": "viability, T/C", "setting": "compound 0.1 µM", "result": "67.9% and 52.2% and 54.5%"}, {"measurement": "viability, T/C", "setting": "compound 0.316 µM", "result": "38.1% and 41.2% and 43.5%"}, {"measurement": "viability, T/C", "setting": "compound 1 µM", "result": "19.5% and 22.3% and 19.1%"}, {"measurement": "viability, T/C", "setting": "compound 3.16 µM", "result": "7.67% and 6.06% and 6.27%"}, {"measurement": "viability, T/C", "setting": "compound 10 µM", "result": "4.91% and 3.92% and 4.93%"}, {"measurement": "IC50", "setting": "curve of compound", "result": "201 nM and 144 nM and 161 nM"}]}, {"smiles": "C#Cc1c(F)ccc2cc(O)cc(-c3ncc4c(N5CC6CCC(C5)N6)nc(OCC56CCCN5CC(F)C6)nc4c3F)c12", "note": "(stereo not drawn) + Cc1cnc(CNC(=O)c2c(=O)c3ccc(N4CCCN(C)CC4)nc3n3c2sc2ccccc23)cn1", "values": [{"measurement": "IC50", "setting": "curve of first compound, second compound 0.0316 µM", "result": 966, "unit": "nM"}, {"measurement": "IC50", "setting": "curve of first compound, second compound 0.1 µM", "result": 494, "unit": "nM"}, {"measurement": "IC50", "setting": "curve of first compound, second compound 0.316 µM", "result": 91.8, "unit": "nM"}, {"measurement": "IC50", "setting": "curve of first compound, second compound 1 µM", "result": "< 31.6", "unit": "nM"}, {"measurement": "IC50", "setting": "curve of first compound, second compound 3.16 µM", "result": "< 31.6", "unit": "nM"}, {"measurement": "IC50", "setting": "curve of first compound, second compound 10 µM", "result": "< 31.6", "unit": "nM"}, {"measurement": "viability, T/C", "setting": "second compound 0.0316 µM, first compound 0.0316 µM", "result": 72, "unit": "%"}, {"measurement": "viability, T/C", "setting": "second compound 0.0316 µM, first compound 0.1 µM", "result": 83.7, "unit": "%"}, {"measurement": "viability, T/C", "setting": "second compound 0.0316 µM, first compound 0.316 µM", "result": 88.4, "unit": "%"}, {"measurement": "viability, T/C", "setting": "second compound 0.0316 µM, first compound 1 µM", "result": 49, "unit": "%"}, {"measurement": "viability, T/C", "setting": "second compound 0.0316 µM, first compound 3.16 µM", "result": 31.2, "unit": "%"}, {"measurement": "viability, T/C", "setting": "second compound 0.0316 µM, first compound 10 µM", "result": 23.1, "unit": "%"}, {"measurement": "viability, T/C", "setting": "second compound 0.1 µM, first compound 0.0316 µM", "result": 68.5, "unit": "%"}, {"measurement": "viability, T/C", "setting": "second compound 0.1 µM, first compound 0.1 µM", "result": 65.3, "unit": "%"}, {"measurement": "viability, T/C", "setting": "second compound 0.1 µM, first compound 0.316 µM", "result": 54, "unit": "%"}, {"measurement": "viability, T/C", "setting": "second compound 0.1 µM, first compound 1 µM", "result": 41.6, "unit": "%"}, {"measurement": "viability, T/C", "setting": "second compound 0.1 µM, first compound 3.16 µM", "result": 31.9, "unit": "%"}, {"measurement": "viability, T/C", "setting": "second compound 0.1 µM, first compound 10 µM", "result": 20.4, "unit": "%"}, {"measurement": "viability, T/C", "setting": "second compound 0.316 µM, first compound 0.0316 µM", "result": 52.3, "unit": "%"}, {"measurement": "viability, T/C", "setting": "second compound 0.316 µM, first compound 0.1 µM", "result": 48, "unit": "%"}, {"measurement": "viability, T/C", "setting": "second compound 0.316 µM, first compound 0.316 µM", "result": 51.6, "unit": "%"}, {"measurement": "viability, T/C", "setting": "second compound 0.316 µM, first compound 1 µM", "result": 31.7, "unit": "%"}, {"measurement": "viability, T/C", "setting": "second compound 0.316 µM, first compound 3.16 µM", "result": 32.7, "unit": "%"}, {"measurement": "viability, T/C", "setting": "second compound 0.316 µM, first compound 10 µM", "result": 15.5, "unit": "%"}, {"measurement": "viability, T/C", "setting": "second compound 1 µM, first compound 0.0316 µM", "result": 34.7, "unit": "%"}, {"measurement": "viability, T/C", "setting": "second compound 1 µM, first compound 0.1 µM", "result": 42.6, "unit": "%"}, {"measurement": "viability, T/C", "setting": "second compound 1 µM, first compound 0.316 µM", "result": 41.5, "unit": "%"}, {"measurement": "viability, T/C", "setting": "second compound 1 µM, first compound 1 µM", "result": 29, "unit": "%"}, {"measurement": "viability, T/C", "setting": "second compound 1 µM, first compound 3.16 µM", "result": 27, "unit": "%"}, {"measurement": "viability, T/C", "setting": "second compound 1 µM, first compound 10 µM", "result": 14.1, "unit": "%"}, {"measurement": "viability, T/C", "setting": "second compound 3.16 µM, first compound 0.0316 µM", "result": 29, "unit": "%"}, {"measurement": "viability, T/C", "setting": "second compound 3.16 µM, first compound 0.1 µM", "result": 36.7, "unit": "%"}, {"measurement": "viability, T/C", "setting": "second compound 3.16 µM, first compound 0.316 µM", "result": 33.9, "unit": "%"}, {"measurement": "viability, T/C", "setting": "second compound 3.16 µM, first compound 1 µM", "result": 34.9, "unit": "%"}, {"measurement": "viability, T/C", "setting": "second compound 3.16 µM, first compound 3.16 µM", "result": 18.4, "unit": "%"}, {"measurement": "viability, T/C", "setting": "second compound 3.16 µM, first compound 10 µM", "result": 11.9, "unit": "%"}, {"measurement": "viability, T/C", "setting": "second compound 10 µM, first compound 0.0316 µM", "result": 0.13, "unit": "%"}, {"measurement": "viability, T/C", "setting": "second compound 10 µM, first compound 0.1 µM", "result": 0.18, "unit": "%"}, {"measurement": "viability, T/C", "setting": "second compound 10 µM, first compound 0.316 µM", "result": 0.23, "unit": "%"}, {"measurement": "viability, T/C", "setting": "second compound 10 µM, first compound 1 µM", "result": 0.2, "unit": "%"}, {"measurement": "viability, T/C", "setting": "second compound 10 µM, first compound 3.16 µM", "result": 0.23, "unit": "%"}, {"measurement": "viability, T/C", "setting": "second compound 10 µM, first compound 10 µM", "result": 0.2, "unit": "%"}]}]}
